Experimental data taken from paper PMC10210398, “Genomic, functional and structural analyses elucidate evolutionary innovation within the sea anemone 8 toxin family” (BMC Biology, 2023).

How the values were obtained:
[1] = system: hKV1.1; assay type: cell-based, human
Protocol: (§1) CHO and human embryonic kidney (HEK 293) cells were grown in DMEM-high glucose supplemented with 10% FBS, 2 mM L-glutamine, 100 U/mL penicillin-g, and 100 μg/mL streptomycin (Invitrogen) at 37 °C in a 5% CO2 and 95% air humidified atmosphere. Cells were passaged twice per week following a 5-min incubation in PBS containing 0.2 g/L EDTA (Invitrogen, Carlsbad, CA).
(§2) CHO cells (ATCC) were transiently transfected with plasmids encoding hKV1.1, hKV1.2, hKV10.1, hKCa3.1, hTRPA1, or hNaV1.7 using Lipofectamine 2000 (Invitrogen, Carlsbad, CA) following the manufacturer’s protocol, then cultured under standard conditions. The cells were co-transfected with a plasmid encoding green fluorescent protein (GFP) at a molar ratio of 10:1 except for hKV1.1, hKV1.2, and hKCa3.1 for which GFP-tagged ion channel vectors were used. Currents were recorded 24–36 h after transfection. […] HEK 293 cells stably expressing the hKv11.1 channel (hERG, hKCNH2 gene, a kind gift from H. Wulff, University of California, Davis, CA) and mKCa1.1 channel (BKCa, hKCNMA1, a kind gift from C. Beeton, Baylor College of Medicine, Houston, TX) were used. hTRPV1 channels were expressed in a stable manner in CHO cells. Transfected cells were washed twice with 2 mL of ECS (see below) and re-plated onto 35-mm polystyrene cell culture dishes (Cellstar, Greiner Bio-One). hKV1.3 currents were recorded from activated peripheral blood mononuclear cells (PBMCs, see below) 3–4 days after activation. Human veinous blood was obtained from anonymised healthy donors. […]
(§3) Conventional whole-cell patch-clamp electrophysiology was used to record ionic currents. […] Data were analysed using Prism 8 (GraphPad, CA, USA) and ClampFit 10.5 software (Molecular Devices Inc., Sunnyvale, CA). […] For hKCa3.1, hTRPA1 and hTRPV1, the reversal potential for K^+ was determined and only those currents were analysed for which the reversal potential fell into the range of the theoretical reversal potential ± 5 mV (− 86.5 ± 5 mV for KCa3.1, and 0 ± 5 mV for hTRPA1 and hTRPV1).

[2] = system: hKV1.3; assay type: cell-based, human
Protocol: as §2, with “donors. PBMCs were isolated using Histopaque1077 (Sigma-Aldrich Hungary, Budapest, Hungary) density gradient centrifugation. Cells obtained were resuspended in RPMI 1640 medium containing 10% foetal calf serum (Sigma-Aldrich Hungary, Budapest, Hungary), 100 μg/mL penicillin, 100 μg/mL streptomycin, and 2 mM L-glutamine, seeded in a 24-well culture plate at a density of 5–6 × 10^5 cells/mL, and grown in a 5% CO2 incubator at 37 °C for 3–5 days.” for “donors.”
as §3

[3] = system: mKCa1.1 channel; assay type: cell-based
Protocol: as §1, §2, §3

[4] = target: hKV1.1; details: read-out: Kd (positive control concentration equivalent to Kd); KV1.1; no reference given; cited from earlier work
Protocol: (§4) Voltage protocols: For measurement of hKV1.1–1.3 and hKV10.1, currents, voltage steps to + 50 mV, were applied from a holding potential of − 120 mV every 15 or 30 s and the peak current was measured. Channels were activated by a series of depolarisation pulses to + 50 mV from a holding potential of − 120 mV. For KV1.1, 50-ms-long activating stimuli were used every 15 s. Due to the highly variable activation kinetics of KV1.2 [145] 200-ms-long pulses were applied every 15 s to maximise the open probability of the channel.

[5] = target: hKV1.3; details: read-out: Kd (positive control concentration equivalent to Kd); KV1.3; no reference given; cited from earlier work
Protocol: as §4

[6] = target: mKCa1.1 channel; details: read-out: Kd (positive control concentration equivalent to Kd); KCa1.1; no reference given; cited from earlier work
Protocol: as §4

[7] = system: hKV10.1; experiment: Whole-cell patch-clamp, hKV10.1 in transiently transfected CHO cells; assay type: cell-based, human; details: 2 µM, KV10.1
Protocol: as §1, §2, §3

[8] = target: T1, hKV1.2 (Homo sapiens, UniProt P16389); experiment: Whole-cell patch-clamp, hKV1.2 in transiently transfected CHO cells; assay type: cell-based; set-up: reduction in current amplitude, positive control: dose or concentration left out as unconfirmed; details: […] nM, KV1.2
T1 construct: GFP; expressed in transfected cells; host or cells: CHO cells (ATCC), transient transfection with Lipofectamine 2000
Protocol: as §1
CHO cells (ATCC) were transiently transfected with plasmids encoding hKV1.1, hKV1.2, hKV10.1, hKCa3.1, hTRPA1, or hNaV1.7 using Lipofectamine 2000 (Invitrogen, Carlsbad, CA) following the manufacturer’s protocol, then cultured under standard conditions. The cells were co-transfected with a plasmid encoding green fluorescent protein (GFP) at a molar ratio of 10:1 except for hKV1.1, hKV1.2, and hKCa3.1 for which GFP-tagged ion channel vectors were used. Currents were recorded 24–36 h after transfection. […] HEK 293 cells stably expressing the hKv11.1 channel (hERG, hKCNH2 gene, a kind gift from H. Wulff, University of California, Davis, CA) and mKCa1.1 channel (BKCa, hKCNMA1, a kind gift from C. Beeton, Baylor College of Medicine, Houston, TX) were used. hTRPV1 channels were expressed in a stable manner in CHO cells. Transfected cells were washed twice with 2 mL of ECS (see below) and re-plated onto 35-mm polystyrene cell culture dishes (Cellstar, Greiner Bio-One). hKV1.3 currents were recorded from activated peripheral blood mononuclear cells (PBMCs, see below) 3–4 days after activation. Human veinous blood was obtained from anonymised healthy donors. PBMCs were isolated using Histopaque1077 (Sigma-Aldrich Hungary, Budapest, Hungary) density gradient centrifugation. Cells obtained were resuspended in RPMI 1640 medium containing 10% foetal calf serum (Sigma-Aldrich Hungary, Budapest, Hungary), 100 μg/mL penicillin, 100 μg/mL streptomycin, and 2 mM L-glutamine, seeded in a 24-well culture plate at a density of 5–6 × 10^5 cells/mL, and grown in a 5% CO2 incubator at 37 °C for 3–5 days. Phytohemagglutinin A (PHA, Sigma-Aldrich Hungary, Budapest, Hungary) was added to the medium at 10 μg/mL to amplify the KV1.3 expression. Cells were washed gently twice with 2 mL of ECS for the patch-clamp experiments.
Conventional whole-cell patch-clamp electrophysiology was used to record ionic currents. Micropipettes were pulled in four stages using a Flaming Brown automatic pipette puller (Sutter Instruments, San Rafael, CA) from Borosilicate Standard Wall with Filament aluminium–silicate glass (Harvard Apparatus Co., Holliston, MA) with tip diameters between 0.5 and 1 μm and heat polished to a tip resistance of 2–8 MΩ. All measurements were carried out by using Axopatch 200B amplifier connected to a personal computer using Axon Digidata 1550A data acquisition hardware (Molecular Devices, Sunnyvale, CA). In general, the holding potential was − 120 mV. Records were discarded when a leak at the holding potential was > 10% of the peak current at the test potential. Series resistance compensation up to 70% was used to minimise voltage errors and achieve proper voltage-clamp conditions. Experiments were performed at room temperature (20–24 °C). Data were analysed using Prism 8 (GraphPad, CA, USA) and ClampFit 10.5 software (Molecular Devices Inc., Sunnyvale, CA). Before analysis, whole-cell current traces were corrected for ohmic leakage and digitally filtered with a three-point boxcar smoothing filter. For hKCa3.1, hTRPA1 and hTRPV1, the reversal potential for K^+ was determined and only those currents were analysed for which the reversal potential fell into the range of the theoretical reversal potential ± 5 mV (− 86.5 ± 5 mV for KCa3.1, and 0 ± 5 mV for hTRPA1 and hTRPV1).

T1 sequence (P16389 whole entry): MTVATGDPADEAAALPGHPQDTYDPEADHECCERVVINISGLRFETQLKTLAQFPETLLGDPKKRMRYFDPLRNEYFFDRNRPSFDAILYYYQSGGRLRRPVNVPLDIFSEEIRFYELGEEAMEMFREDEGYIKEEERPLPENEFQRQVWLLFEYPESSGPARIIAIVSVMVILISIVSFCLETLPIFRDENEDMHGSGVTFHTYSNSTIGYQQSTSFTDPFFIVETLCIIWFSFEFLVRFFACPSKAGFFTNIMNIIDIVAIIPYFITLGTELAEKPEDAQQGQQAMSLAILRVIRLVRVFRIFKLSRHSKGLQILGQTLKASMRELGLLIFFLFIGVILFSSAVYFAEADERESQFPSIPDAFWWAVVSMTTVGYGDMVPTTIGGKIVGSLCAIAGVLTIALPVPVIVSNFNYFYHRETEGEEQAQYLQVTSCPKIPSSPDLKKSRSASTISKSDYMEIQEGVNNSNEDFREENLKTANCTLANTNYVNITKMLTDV

## CC[N+](CC)(CC)CC [TEA+, tetraethylammonium, reference compound]
[1]
  reduction in current amplitude, positive control: ~50%
[2]
  reduction in current amplitude, positive control: ~50%
[3]
  reduction in current amplitude, positive control: ~50%
[4]
  Kd: 300 µM
[5]
  Kd: 10 mM
[6]
  Kd: 10 mM

## COc1ccc(CCN2CCC(Nc3nc4ccccc4n3Cc3ccc(F)cc3)CC2)cc1 [Astemizole, astemizole, reference compound]
[7]
  reduction in current amplitude, positive control: ~50%

## charybdotoxin [ChTx, reference compound]
[8]
  reduction in current amplitude, positive control: ~50%
